molecular target: T1, human PAH with the R408W mutation (A375 R408W cells) (Homo sapiens, UniProt P00439, R408W); experiment: Cell Based Phenylalanine Flux Assay; conditions: A375 R408W cells; 24 hrs with compound, then 20 μM sepiapterin and 800 μM 13C9,15N-Phenylalanine for 4 hours; 13C-Tyrosine by LC-MS; average where tested multiple times
T1 construct: expressed in transfected cells
T1 sequence (P00439 1-452 R408W): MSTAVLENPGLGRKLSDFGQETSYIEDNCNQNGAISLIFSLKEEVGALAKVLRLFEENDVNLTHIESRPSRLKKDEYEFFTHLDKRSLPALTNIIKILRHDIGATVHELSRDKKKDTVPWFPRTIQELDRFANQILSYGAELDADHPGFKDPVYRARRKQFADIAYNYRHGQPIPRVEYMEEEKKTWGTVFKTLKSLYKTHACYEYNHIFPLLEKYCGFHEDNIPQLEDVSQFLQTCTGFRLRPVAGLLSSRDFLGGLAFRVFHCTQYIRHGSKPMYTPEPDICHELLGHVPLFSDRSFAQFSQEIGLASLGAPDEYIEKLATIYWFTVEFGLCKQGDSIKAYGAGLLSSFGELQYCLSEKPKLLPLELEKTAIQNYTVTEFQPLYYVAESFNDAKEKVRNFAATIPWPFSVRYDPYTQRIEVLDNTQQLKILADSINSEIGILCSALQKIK
Procedure, shortened: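 A375 cells stably expressing lentiviral human PAH R408W were treated with compounds (10-point 2-fold dilutions, 0.5% DMSO, duplicate) for 24 h at 37 °C. Then 20 μM sepiapterin and 800 μM 13C9,15N-Phe were added for 4 h; media 13C-Tyr was measured by LC-MS to give AC50.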

AC50 [nM]	Compound
≤ 500	Cc1cccc2nc([C@@H]3c4nc[nH]c4CCN3C(=O)c3ccnn3C(F)F)oc12 [Example 919, (S)-(1-(difluoromethyl)-1H-pyrazol-5-yl)(4-(7-methylbenzo[d]oxazol-2-yl)-6,7-dihydro-1H-imidazo[4,5-c]pyridin-5(4H)-yl)methanone]
≤ 500	O=C(c1ocnc1C(F)F)N1CCc2[nH]cnc2[C@@H]1c1nc2cccc(Br)c2o1 [Example 462, (R)-(4-(7-bromobenzo[d]oxazol-2-yl)-6,7-dihydro-1H-imidazo[4,5-c]pyridin-5(4H)-yl)(4-(difluoromethyl)oxazol-5-yl)methanone]
≤ 500	O=C(c1ocnc1C(F)F)N1CCc2[nH]cnc2[C@H]1c1nc2c(OC(F)(F)F)cccc2o1 [Example 536, (S)-(4-(difluoromethyl)oxazol-5-yl)(4-(4-(trifluoromethoxy)benzo[d]oxazol-2-yl)-6,7-dihydro-1H-imidazo[4,5-c]pyridin-5(4H)-yl)methanone]
≤ 500	Cc1ccc2oc([C@@H]3c4nc[nH]c4CCN3C(=O)c3oc(-c4cnn(C)c4)nc3C(F)F)nc2c1 [Example 771, (S)-(4-(difluoromethyl)-2-(1-methyl-1H-pyrazol-4-yl)oxazol-5-yl)(4-(5-methylbenzo[d]oxazol-2-yl)-6,7-dihydro-1H-imidazo[4,5-c]pyridin-5(4H)-yl)methanone]
1000 to 5000	Cc1ncoc1C(=O)N1CCc2[nH]cnc2[C@@H]1c1nc2ccccc2o1 [Example 794, (R)-(4-(benzo[d]oxazol-2-yl)-6,7-dihydro-1H-imidazo[4,5-c]pyridin-5(4H)-yl)(4-methyloxazol-5-yl)methanone]
1000 to 5000	Cn1cc(-c2nc(C(F)F)c(C(=O)N3CCc4[nH]cnc4[C@@H]3c3nc4ccccc4o3)o2)cn1 [Example 759, (R)-(4-(benzo[d]oxazol-2-yl)-6,7-dihydro-1H-imidazo[4,5-c]pyridin-5(4H)-yl)(4-(difluoromethyl)-2-(1-methyl-1H-pyrazol-4-yl)oxazol-5-yl)methanone]
500 to 1000	COc1cccc2oc([C@@H]3c4nc[nH]c4CCN3C(=O)c3cnco3)nc12 [Example 621, (S)-(4-(4-methoxybenzo[d]oxazol-2-yl)-6,7-dihydro-1H-imidazo[4,5-c]pyridin-5(4H)-yl)(oxazol-5-yl)methanone]
500 to 1000	Cn1cnc(-c2nnc(C(=O)N3CCc4[nH]cnc4[C@H]3c3nc4c(F)ccc(F)c4o3)o2)c1 [Example 817, (S)-(4-(4,7-difluorobenzo[d]oxazol-2-yl)-6,7-dihydro-1H-imidazo[4,5-c]pyridin-5(4H)-yl)(5-(1-methyl-1H-imidazol-4-yl)-1,3,4-oxadiazol-2-yl)methanone]
1000 to 5000	O=C(c1nnc(-c2ccc(OC(F)(F)F)cn2)o1)N1CCc2[nH]cnc2[C@@H]1c1nc2cc(F)ccc2o1 [Example 672, (R)-(4-(5-fluorobenzo[d]oxazol-2-yl)-6,7-dihydro-1H-imidazo[4,5-c]pyridin-5(4H)-yl)(5-(5-(trifluoromethoxy)pyridin-2-yl)-1,3,4-oxadiazol-2-yl)methanone]
≤ 500	O=C(c1nnc(-c2ccccn2)o1)N1CCc2[nH]cnc2[C@H]1c1nc2ccccc2o1 [Example 583, (S)-(4-(benzo[d]oxazol-2-yl)-6,7-dihydro-1H-imidazo[4,5-c]pyridin-5(4H)-yl)(5-(pyridin-2-yl)-1,3,4-oxadiazol-2-yl)methanone]
500 to 1000	Cc1cccc2nc([C@H]3c4nc[nH]c4CCN3C(=O)c3ocnc3C(F)F)oc12 [Example 394, (R)-(4-(difluoromethyl)oxazol-5-yl)(4-(7-methylbenzo[d]oxazol-2-yl)-6,7-dihydro-1H-imidazo[4,5-c]pyridin-5(4H)-yl)methanone]
≤ 500	Cc1cccc2oc([C@@H]3c4nc[nH]c4CCN3C(=O)c3nnc(-c4cnn(C)c4)o3)nc12 [Example 480, (S)-(5-(1-methyl-1H-pyrazol-4-yl)-1,3,4-oxadiazol-2-yl)(4-(4-methylbenzo[d]oxazol-2-yl)-6,7-dihydro-1H-imidazo[4,5-c]pyridin-5(4H)-yl)methanone]
1000 to 5000	Cn1cncc1-c1nc(C(F)(F)F)c(C(=O)N2CCc3[nH]cnc3[C@@H]2c2nc3cc(F)ccc3o2)o1 [Example 792, (R)-(4-(5-fluorobenzo[d]oxazol-2-yl)-6,7-dihydro-1H-imidazo[4,5-c]pyridin-5(4H)-yl)(2-(1-methyl-1H-imidazol-5-yl)-4-(trifluoromethyl)oxazol-5-yl)methanone]
1000 to 5000	O=C(c1nnc(-c2ccn(C(F)F)n2)o1)N1CCc2[nH]cnc2[C@@H]1c1nc2cc(F)ccc2o1 [Example 114, (R)-(5-(1-(difluoromethyl)-1H-pyrazol-3-yl)-1,3,4-oxadiazol-2-yl)(4-(5-fluorobenzo[d]oxazol-2-yl)-6,7-dihydro-1H-imidazo[4,5-c]pyridin-5(4H)-yl)methanone]
≤ 500	COc1cc(F)cc2nc([C@@H]3c4nc[nH]c4CCN3C(=O)c3oc(C(C)(C)O)nc3C(F)F)oc12 [Example 715, (S)-(4-(difluoromethyl)-2-(2-hydroxypropan-2-yl)oxazol-5-yl)(4-(5-fluoro-7-methoxybenzo[d]oxazol-2-yl)-6,7-dihydro-1H-imidazo[4,5-c]pyridin-5(4H)-yl)methanone]
≤ 500	O=C(c1oc(-c2cnccn2)nc1C(F)F)N1CCc2[nH]cnc2[C@H]1c1nc2cccc(F)c2o1 [Example 693, (S)-(4-(difluoromethyl)-2-(pyrazin-2-yl)oxazol-5-yl)(4-(7-fluorobenzo[d]oxazol-2-yl)-6,7-dihydro-1H-imidazo[4,5-c]pyridin-5(4H)-yl)methanone]
≤ 500	COc1cc(F)c2oc([C@H]3c4nc[nH]c4CCN3C(=O)c3oc(C(C)(C)O)nc3C(F)F)nc2c1 [Example 644, (R)-(4-(difluoromethyl)-2-(2-hydroxypropan-2-yl)oxazol-5-yl)(4-(7-fluoro-5-methoxybenzo[d]oxazol-2-yl)-6,7-dihydro-1H-imidazo[4,5-c]pyridin-5(4H)-yl)methanone]
≤ 500	Cn1cc(-c2nnc(C(=O)N3CCc4[nH]cnc4[C@H]3c3nc4cc(F)ccc4o3)o2)c(C(F)(F)F)n1 [Example 118, (S)-(4-(5-fluorobenzo[d]oxazol-2-yl)-6,7-dihydro-1H-imidazo[4,5-c]pyridin-5(4H)-yl)(5-(1-methyl-3-(trifluoromethyl)-1H-pyrazol-4-yl)-1,3,4-oxadiazol-2-yl)methanone]
1000 to 5000	Cn1nc(Br)nc1C(=O)N1CCc2[nH]cnc2[C@@H]1c1nc2c(F)cccc2o1 [Example 472, (R)-(3-bromo-1-methyl-1H-1,2,4-triazol-5-yl)(4-(4-fluorobenzo[d]oxazol-2-yl)-6,7-dihydro-1H-imidazo[4,5-c]pyridin-5(4H)-yl)methanone]
500 to 1000	O=C(c1oc(COC(F)(F)F)nc1C(F)F)N1CCc2[nH]cnc2[C@H]1c1nc2cc(F)ccc2o1 [Example 115, (S)-(4-(difluoromethyl)-2-((trifluoromethoxy)methyl)oxazol-5-yl)(4-(5-fluorobenzo[d]oxazol-2-yl)-6,7-dihydro-1H-imidazo[4,5-c]pyridin-5(4H)-yl)methanone]
1000 to 5000	Cc1cccc2oc([C@H]3c4nc[nH]c4CCN3C(=O)c3ocnc3C(F)F)nc12 [Example 381, (R)-(4-(difluoromethyl)oxazol-5-yl)(4-(4-methylbenzo[d]oxazol-2-yl)-6,7-dihydro-1H-imidazo[4,5-c]pyridin-5(4H)-yl)methanone]
500 to 1000	Cn1cc(-c2nnc(C(=O)N3CCc4[nH]cnc4[C@H]3c3nc4c(F)cccc4o3)o2)cn1 [Example 197, (S)-(4-(4-fluorobenzo[d]oxazol-2-yl)-6,7-dihydro-1H-imidazo[4,5-c]pyridin-5(4H)-yl)(5-(1-methyl-1H-pyrazol-4-yl)-1,3,4-oxadiazol-2-yl)methanone]
500 to 1000	Cc1cccc2oc([C@H]3c4nc[nH]c4CCN3C(=O)c3nnc(-c4cnn(C)c4)o3)nc12 [Example 479, (R)-(5-(1-methyl-1H-pyrazol-4-yl)-1,3,4-oxadiazol-2-yl)(4-(4-methylbenzo[d]oxazol-2-yl)-6,7-dihydro-1H-imidazo[4,5-c]pyridin-5(4H)-yl)methanone]
1000 to 5000	O=C(c1ocnc1C(F)(F)F)N1Cc2[nH]cnc2[C@@H]1c1nc2ccccc2o1 [Example 943, (R)-(4-(benzo[d]oxazol-2-yl)-4,6-dihydropyrrolo[3,4-d]imidazol-5(1H)-yl)(4-(trifluoromethyl)oxazol-5-yl)methanone]
≤ 500	CC(C)(O)c1nc(C(F)F)c(C(=O)N2CCc3[nH]cnc3[C@@H]2c2nc3cc(Br)cc(F)c3o2)o1 [Example 572, (R)-(4-(5-bromo-7-fluorobenzo[d]oxazol-2-yl)-6,7-dihydro-1H-imidazo[4,5-c]pyridin-5(4H)-yl)(4-(difluoromethyl)-2-(2-hydroxypropan-2-yl)oxazol-5-yl)methanone]

same assay, conditions: A375 cells expressing R408W PAH; 24 hrs with compound, then 20 μM sepiapterin and 800 μM 13C9,15N-Phenylalanine for 4 hours; 13C-Tyrosine by LC-MS; average where tested multiple times

AC50 [nM]	Compound
≥ 5000	COc1ccc2oc(C3c4nc[nH]c4CCN3C(=O)c3cnco3)nc2c1 (stereo not shown)
≥ 5000	O=C(c1cnn2cc(N3CCC(F)CC3)ccc12)N1CCc2[nH]cnc2C1c1nc2cc(F)ccc2o1 (stereo not shown)
1000 to 5000	Cn1ncnc1C(=O)N1CCc2[nH]cnc2C1c1nc2c(F)cccc2o1 (stereo not shown)

From patent publication US20250171437A1 (Agios Pharmaceuticals,Inc., priority 2022, published 2025)
